Test results reported in patent publication US4473578A, “β-Lactam antibiotics and their use” (Beecham Group Limited, priority 1979, dated 1984).
In brackets after ≈: the same amount, converted by molar mass.

Tests used:
Assay in all cases: Antibacterial effectiveness in agar
Assay type in all cases: cell-based
Proteus rettgeri R110 = conditions: Providencia rettgeri; in agar; Proteus rettgeri R110; read-out: M.I.C.
From the text: (§1) b. Antibacterial effectiveness of the compound of […]

Escherichia coli JT425C+ = conditions: in agar; Escherichia coli JT425C+; read-out: M.I.C.
From the text: as §1

[1] = tested on: Citrobacter freundii T221; conditions: in agar; Citrobacter freundii T221; read-out: M.I.C.
From the text: as §1

Proteus rettgeri I = conditions: Providencia rettgeri; in agar; Proteus rettgeri I; read-out: M.I.C.
From the text: as §1

[2] = tested on: Staphylococcus aureus ATCC 25923; conditions: ATCC25923; in agar; Staphylococcus aureus ATCC 25923; read-out: M.I.C.
From the text: as §1

[3] = tested on: Enterobacter cloacea NCTC 10005; conditions: NCTC10005; in agar; Enterobacter cloacea NCTC 10005; read-out: M.I.C.
From the text: as §1

[4] = tested on: Klebsiella aerogenes T219; conditions: in agar; Klebsiella aerogenes T219; read-out: M.I.C.
From the text: as §1

[5] = tested on: Enterobacter cloacea T749; conditions: in agar; Enterobacter cloacea T749; read-out: M.I.C.
From the text: as §1

[6] = tested on: Klebsiella aerogenes I281; conditions: in agar; Klebsiella aerogenes I281; read-out: M.I.C.
From the text: as §1

[7] = tested on: Pseudomonas aeruginosa NCTC 10662; conditions: NCTC10662; in agar; Pseudomonas aeruginosa NCTC 10662; read-out: M.I.C.
From the text: as §1

Escherichia coli JT20R+ = tested on: Escherichia coli JT20R+
From the text: as §1

CC(=O)N/C=C/SC1=C(C(=O)O)N2C(=O)[C@@H]([C@H](C)OS(=O)(=O)O)[C@H]2C1 [MM 13902, reference compound]
MIC (Proteus rettgeri R110): 0.2 µg/mL (≈ 0.51 µM)
MIC (Escherichia coli JT425C+): 0.8 µg/mL (≈ 2.04 µM)
MIC [1]: 6.2 µg/mL (≈ 15.8 µM)
MIC (Proteus rettgeri I): 0.2 µg/mL (≈ 0.51 µM)
MIC [2]: 1.6 µg/mL (≈ 4.08 µM)
MIC [3]: 12.5 µg/mL (≈ 31.9 µM)
MIC [4]: ≤ 0.1 µg/mL
MIC [5]: 12.5 µg/mL (≈ 31.9 µM)
MIC [6]: 0.2 µg/mL (≈ 0.51 µM)
MIC [7]: 25 µg/mL (≈ 63.7 µM)
MIC (Escherichia coli JT20R+): 1.6 µg/mL (≈ 4.08 µM)
